Source: patent publication US20100292205A1, “Pyrimidone Compounds As GSK-3 Inhibitors” (PFIZER INC., priority 2006, published 2010)
Read-outs that look alike come from different tables or passages of the source. Blank lines part the entries; values can stand above or below the molecule they belong to.

Target: T1, Recombinant human GSK3β (Homo sapiens, UniProt P49841)
T1 construct: His-tag; made in house; host or cells: Sf9 insect cells / baculovirus
Assay: GSK-3β (Glycogen Synthase Kinase) cell free enzyme assay
Format: biochemical
Conditions: for IC50: cell free enzyme assay; for inhibition at 1 µM: read-out: Percent inhibition at 1 μM
How it was run: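 This cell-free kinase assay measured [33P] transfer from [33P]ATP gamma phosphate into the biotinylated peptide bio-LC-S-R-H-S-S-P-H-Q-pS-E-D-E-E-E-OH. After 60 min at RT, reactions were stopped with 0.66 volume of PBS lacking Ca or Mg containing 12.5 mM EDTA, 0.25% Triton-X 100, 125 uM ATP and 6.2 mg/ml streptavidin SPA beads. Bead-bound radioactivity was counted as CPM on a Trilux scintillation counter.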

[1] = 1 μM, GSK-3β cell free enzyme assay, Examples 42-60

T1 sequence (P49841 whole entry): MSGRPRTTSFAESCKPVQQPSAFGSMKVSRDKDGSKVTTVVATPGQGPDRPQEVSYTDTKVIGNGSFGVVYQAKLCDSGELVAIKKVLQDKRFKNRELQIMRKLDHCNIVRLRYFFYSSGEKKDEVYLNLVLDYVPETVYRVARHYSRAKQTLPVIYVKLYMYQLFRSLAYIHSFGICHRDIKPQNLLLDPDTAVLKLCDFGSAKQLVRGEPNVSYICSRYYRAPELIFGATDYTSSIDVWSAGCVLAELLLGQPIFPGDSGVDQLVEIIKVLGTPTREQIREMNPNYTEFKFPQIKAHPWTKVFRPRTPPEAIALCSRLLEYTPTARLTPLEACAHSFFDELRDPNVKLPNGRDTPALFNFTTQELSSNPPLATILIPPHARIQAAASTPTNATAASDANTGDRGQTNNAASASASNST

Molecule: Cn1c(NCC2CCN(C(=O)c3ccccc3)C2)nc(-c2ccncc2)cc1=O (stereo not drawn) [Example 79, 2-{[(1-Benzoylpyrrolidin-3-yl)methyl]amino}-3-methyl-6-pyridin-4-ylpyrimidin-4(3H)-one]
IC50 (Examples 62-155): 69.9 nM

Molecule: CCN(c1nc(-c2ccncc2)cc(=O)n1C)C1CCN(C)CC1 [Example 248, 2-[Ethyl(1-methylpiperidin-4-yl)amino]-3-methyl-6-pyridin-4-ylpyrimidin-4(3H)-one]
inhibition at 1 µM (1 μM, Examples 236-262): 39%

Molecule: CCCCOc1ccc(C(=O)N2C[C@@H]3[C@H](C2)[C@H]3N(C)c2nc(-c3ccncc3F)cc(=O)n2C)cc1 [Example 123, 2-{[(1R,5S,6s)-3-(4-Butoxybenzoyl)-3-azabicyclo[3.1.0]hex-6-yl](methyl)amino}-6-(3-fluoropyridin-4-yl)-3-methylpyrimidin-4(3H)-one]
IC50 (Examples 62-155): 13.6 nM

Molecule: CCN(c1nc(-c2ccncc2)cc(=O)n1C)C1CCCN(C(=O)c2ccccc2)CC1 (stereo not drawn) [Example 71, 2-[(1-Benzoylazepan-4-yl)(ethyl)amino]-3-methyl-6-pyridin-4-ylpyrimidin-4(3H)-one]
IC50 (Examples 62-155): 36.3 nM

Molecule: CC(=O)N1CC[C@@]2(C)C[C@H](N(C)c3nc(-c4ccncc4)cc(=O)n3C)CC[C@@H]12 [Example 55, 2-{[(3a,S5,R7,aR)-1-Acetyl-3a-methyloctahydro-1H-indol-5-yl](methyl)amino}-3-methyl-6-pyridin-4-ylpyrimidin-4(3H)-one]
inhibition at 1 µM [1]: 71%

Molecule: CC(=O)N1CCC(Nc2nc(-c3ccncc3)cc(=O)n2C)CC1 [Example 47, 2-[(1-Acetylpiperidin-4-yl)amino]-3-methyl-6-pyridin-4-ylpyrimidin-4(3H)-one]
inhibition at 1 µM [1]: 44%

Molecule: CN(c1nc(-c2ccncc2)cc(=O)n1C)C1CCCN(C(=O)OC(C)(C)C)CC1 (stereo not drawn) [Example 10, tert-butyl 4-[Methyl(1-methyl-6-oxo-4-pyridin-4-yl-1,6-dihydropyrimidin-2-yl)amino]azepane-1-carboxylate]
IC50 (Examples 1-35): 14.4 nM

Molecule: CC(=O)N1CCCC(N(C)c2nc(-c3ccncc3)cc(=O)n2C)CC1 (stereo not drawn) [Example 53, 2-[(1-Acetylazepan-4-yl)(methyl)amino]-3-methyl-6-pyridin-4-ylpyrimidin-4(3H)-one]
inhibition at 1 µM [1]: 79%

Molecule: CC(=O)N1CCC(N(C)c2nc(-c3ccncc3)cc(=O)n2C)C1 (stereo not drawn) [Example 52, 2-[(1-Acetylpyrrolidin-3-yl)(methyl)amino]-3-methyl-6-pyridin-4-ylpyrimidin-4(3H)-one]
inhibition at 1 µM [1]: 51%

Molecule: CC(=O)N1[C@@H]2CC[C@H]1CN(c1nc(-c3ccncc3)cc(=O)n1C)C2 [Example 44, 2-[(1R,5S)-3-Acetyl-38-diazabicyclo[3.2.1]oct-8-yl]-3-methyl-6-pyridin-4-ylpyrimidin-4(3H)-one]
inhibition at 1 µM [1]: 72%

Molecule: Cn1c(N2CC[C@@H]3CN(C(=O)OC(C)(C)C)C[C@@H]32)nc(-c2ccncc2)cc1=O [Example 26, tert-butyl (3aR,6aR)-1-(1-Methyl-6-oxo-4-pyridin-4-yl-1,6-dihydropyrimidin-2-yl)hexahydropyrrolo [3,4-b]pyrrole-5(1H)-carboxylate]
IC50 (Examples 1-35): 97 nM

Molecule: CCN(C[C@H]1CCCN1C(=O)OC(C)(C)C)c1nc(-c2ccncc2)cc(=O)n1C [Example 5, tert-butyl (2R)-2-{[Ethyl(1-methyl-6-oxo-4-pyridin-4-yl-1,6-dihydropyrimidin-2-yl)amino]methyl} pyrrolidine-1-carboxylate]
IC50 (Examples 1-35): 2.1 nM

Molecule: Cn1c(N[C@@H]2CN(C(=O)Cc3ccccc3)C[C@@H]2F)nc(-c2ccncc2)cc1=O [Example 87, 2-{[(3R,4S)-4-Fluoro-1-(phenylacetyl)pyrrolidin-3-yl]amino}-3-methyl-6-pyridin-4-ylpyrimidin-4(3H)-one]
IC50 (Examples 62-155): 285 nM

Other lines, results leading:

Percent inhibition at 1 μM (1 μM, Examples 201-221): 93%
Molecule: Methyl (3a,S5,S7,aR)-3a- methyl-5-[methyl(1-methyl- 6-oxo-4-pyridin-4-yl-16- dihydropyrimidin-2- yl)amino]octahydro-1H- indole-1-carboxylate [Example 212]

IC50 (Examples 62-155): 4.41 nM
Molecule: CCC(CC)C(=O)N1C[C@@H]2[C@H](C1)[C@H]2N(C)c1nc(-c2ccncc2F)cc(=O)n1C [Example 127, 2-{[(1R,5S,6s)-3-(2-Ethylbutanoyl)-3-azabicyclo[3.1.0]hex-6-yl](methyl)amino}-6-(3-fluoropyridin-4-yl)-3-methylpyrimidin-4(3H)-one]

IC50 (Examples 62-155): 1380 nM
Molecule: Cn1c(NCC2CN(C(=O)Cc3ccccc3)C2)nc(-c2ccncc2)cc1=O [Example 95, 3-Methyl-2-({[1-(phenylacetyl)azetidin-3-yl]methyl}amino)-6-pyridin-4-ylpyrimidin-4(3H)-one]

IC50 (Examples 62-155): 3.7 nM
Molecule: Cc1cc(C(=O)N2C[C@@H]3[C@H](C2)[C@H]3N(C)c2nc(-c3ccncc3F)cc(=O)n2C)c(C)o1 [Example 147, 2-{[(1R,5S,6s)-3-(2,5-Dimethyl-3-furoyl)-3-azabicyclo[3.1.0]hex-6-yl](methyl)amino}-6-(3-fluoropyridin-4-yl)-3-methylpyrimidin-4(3H)-one]

IC50 (Examples 62-155): 2.77 nM
Molecule: CCC(C)C(=O)N1C[C@@H]2[C@H](C1)[C@H]2N(C)c1nc(-c2ccncc2F)cc(=O)n1C (stereo partly drawn) [Example 103, 6-(3-Fluoropyridin-4-yl)-3-methyl-2-{methyl[(1R,5S,6s)-3-(2-methylbutanoyl)-3-azabicyclo[3.1.0]hex-6-yl]amino}pyrimidin-4(3H)-one]

inhibition at 1 µM (1 μM, Examples 157-199): 94%
Molecule: Cn1c(NC[C@H]2CCCN2S(=O)(=O)c2ccccc2)nc(-c2ccncc2)cc1=O [Example 188, 3-Methyl-2-({[(2R)-1-(phenylsulfonyl)pyrrolidin-2-yl]methyl}amino)-6-pyridin-4-ylpyrimidin-4(3H)-one]

IC50 (Examples 265-291): 3.06 nM
Molecule: COCC(C)n1nnnc1N1C[C@@H]2[C@H](C1)[C@H]2N(C)c1nc(-c2ccncc2F)cc(=O)n1C (stereo partly drawn) [Example 287, 6-(3-Fluoropyridin-4-yl)-2-[{(1R,5S,6s)-3-[1-(2-methoxy-1-methylethyl)-1H-tetrazol-5-yl]-3-azabicyclo[3.1.0]hex-6-yl}(methyl)amino]-3-methylpyrimidin-4(3H)-one]

IC50 (Examples 62-155): 4.58 nM
Molecule: CN(c1nc(-c2ccncc2F)cc(=O)n1C)[C@H]1[C@@H]2CN(C(=O)c3ccc(F)c(Cl)c3)C[C@@H]21 [Example 124, 2-{[(1R,5S,6s)-3-(3-Chloro-4-fluorobenzoyl)-3-azabicyclo[3.1.0]hex-6-yl](methyl)amino}-6-(3-fluoropyridin-4-yl)-3-methylpyrimidin-4(3H)-one]

IC50 (Examples 222-234): 1.11 nM
Molecule: CCN(C[C@@H]1CCCN1C(=O)OC)c1nc(-c2ccncn2)cc(=O)n1C [Example 224, Methyl (2S)-2-{[ethyl(1-methyl-6-oxo-1,6-dihydro-4,4′-bipyrimidin-2-yl)amino]methyl}pyrrolidine-1-carboxylate]

inhibition at 1 µM (1 μM, Examples 201-221): 77%
Molecule: COC(=O)N1CCC(Nc2nc(-c3ccncc3)cc(=O)n2C)CC1 [Example 208, Methyl 4-[(1-methyl-6-oxo-4-pyridin-4-yl-16-dihydropyrimidin-2-yl)amino]piperidine-1-carboxylate]

IC50 (Examples 265-291): 3.2 nM
Molecule: CCOc1cccc(-n2nnnc2N2C[C@@H]3[C@H](C2)[C@H]3N(C)c2nc(-c3ccncc3F)cc(=O)n2C)c1 [Example 286, 2-[{(1R,5S,6s)-3-[1-(3-Ethoxyphenyl)-1H-tetrazol-5-yl]-3-azabicyclo[3.1.0]hex-6-yl}(methyl)amino]-6-(3-fluoropyridin-4-yl)-3-methylpyrimidin-4(3H)-one]
